These results are taken from patent US20220274967A1, “BCAT MODULATION” (Icagen, LLC, priority 2019, published 2022).

One test has as its target T1, BCAT2 (Homo sapiens, UniProt O15382).
T1 sequence (O15382 28-392): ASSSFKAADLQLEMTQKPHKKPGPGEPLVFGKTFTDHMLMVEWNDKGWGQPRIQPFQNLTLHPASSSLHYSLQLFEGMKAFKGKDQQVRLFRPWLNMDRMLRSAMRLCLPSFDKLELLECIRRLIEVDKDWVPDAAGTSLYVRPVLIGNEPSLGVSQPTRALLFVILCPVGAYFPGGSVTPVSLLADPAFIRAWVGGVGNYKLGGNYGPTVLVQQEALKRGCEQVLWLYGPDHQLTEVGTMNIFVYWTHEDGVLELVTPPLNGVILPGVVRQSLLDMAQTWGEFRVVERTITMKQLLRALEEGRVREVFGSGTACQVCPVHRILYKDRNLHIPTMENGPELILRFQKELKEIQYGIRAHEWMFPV
As to the kind of experiment: BCAT2 enzyme inhibition (human). The format is biochemical. On the procedure: In further embodiments, the functional modulation of BCAT2 is assayed using a cell-free assay. In various embodiments, the cell-free assay is an enzyme-coupled fluorescent assay. For example, the disclosure contemplates use of an assay that monitors the production of L-glutamate from branch-chain amino acids and α-ketoglutarate through the coupling of hBCATm activity to two additional enzymes, L-Glutamate Oxidase (L-GOx) and Horseradish Peroxidase (HRP). Specifically, L-GOx catabolizes L-glutamate to generate α-ketoglutarate and […], the latter being utilized by HRP and leading to the formation of fluorescent resorufin from the redox-sensitive dye Amplex Red. In some embodiments, the test compound is classified as a candidate compound if a decrease in L-glutamate is measured. In further embodiments, the test compound is classified as a candidate compound if a decrease in α-ketoglutarate is measured.

For a further test, the system named is GM00371 cells. As to the kind of experiment: Viability assay (Cell titer glo) in the 3-HIB assay. The class given is cell-based, human. Conditions: Homo sapiens, 24 h, read-out: 3HIB INHIBITION IC50 (μM) MEAN GM00371 cells Viablility Assay. On the procedure: Cell Plating: Cells (Coriell Institute GM00371 cells) were plated (96-well clear bottom sterile plate; Greiner 655098) at 10,000 cells/0.1 mL in Eagle's minimum essential medium (EMEM)/15% FBS (Gibco 16000-044) with a Combi dispenser in a cell culture hood and incubated at 37° C. and 5% CO2 overnight.
Compound Dilution: Compound were prepared as 33.3× intermediate dilution in DMSO in 96 well round polystyrene plates. For 30 μM final maximum start with 30 μL of 10 mM in DMSO. 10-12 1:3 serial dilutions were prepared from left to right (20 μL+40 μL DMSO). A 10× secondary dilution was prepare in EMEM by taking 7.5 μL 33.3× and transfer to replicate 96 well round polystyrene plates and then adding 242.5 μL EMEM A 1× final dilution in EMEM was prepared by taking 50 μL 10× dilution and transferring to replicate 96 well polypropylene assay block (Costar 3956) and adding 450 μL EMEM A control was prepared for maximal compound inhibition by taking 20 μL 10 mM Reference Compound A and adding 40 μL DMSO for a concentration of 3.3 mM To 7.5 μL of the 3.3 mM Reference Compound A solution and added 242.5 μL EMEM to make a 100 μM solution. The subsequent Reference Compound A solution was diluted with EMEM to achieve a final concentration of 10 μM. The structure of Reference Compound A is:
A control was prepared for maximal compound toxicity by taking 7.5 μL Reference Compound B and 242.5 μL EMEM to make […]. 50 μL of that 100 μM Reference Compound B solution was combined with 450 μL EMEM to achieve a concentration of 30 μM. The structure of Reference Compound B is
Compound Treatment: Media was aspirated from the cells and 100 μL of D-PBS (ThermoFisher 14190144) was added and then removed. 100 μL of diluted compound was added to the cells in the place and the cells were incubated at 37° C. and 5% CO2 for 24 hours.
Viability Assay: To the cells remaining in the plate 25 μL D-PBS and 25 μL Cell titer glo reagent (Promega G7572). The plate was placed on a shaker for 2 minutes, incubated at room temperature in the dark and then read on a Clariostar microplate reader.

The term IC50 denotes the point on the concentration scale where inhibition reaches its midpoint.

As to `CNC(=O)c1ccc2c(c1)nc(-c1ccc3c(c1)OC(F)(F)O3)n2[C@H]1CCC[C@@H](NC(=O)c2ccc(Br)s2)C1` [Compound 160], the IC50 on BCAT2 is above 1000 nM. `CNC(=O)c1cc2nc(-c3ccccn3)n([C@H]3CCC[C@@H](NC(=O)c4ccc(Br)s4)C3)c2cc1OC` [Compound 211]: the IC50 on BCAT2 was below 100 nM; in the test with GM00371 cells, 0.1 to 0.5 µM.

As for `CNC(=O)c1cc2nc(-c3ccccn3)n([C@H]3CCC[C@@H](NC(=O)c4ccc(Cl)s4)C3)c2cc1OC` [Compound 214], the IC50 was below 100 nM against BCAT2 and 0.1 to 0.5 µM in the test on GM00371 cells.

`CNC(=O)c1ccc2c(C3CCCC(NC(=O)c4ccc(Br)s4)C3)c(-c3ccccc3)[nH]c2c1` (centres unmarked) [Compound 283, 3-(3-(5-bromothiophene-2-carboxamido)cyclohexyl)-N-methyl-2 phenyl-1H-indole-6-carboxamide]: the IC50 at BCAT2 was above 1000 nM; with GM00371 cells, at least 1 µM. `CNC(=O)c1ccc2c(c1)nc(-c1ccccn1)n2[C@@H]1CCC[C@H](NC(=O)c2ccc(C(C)=O)s2)C1` [Compound 121]: the IC50 against BCAT2 was above 1000 nM; in the test with GM00371 cells it was at least 1 µM.

Compound `CNC(=O)c1ccc2c(c1)nc(-c1ccc(C)cn1)n2[C@H]1CCC[C@@H](NC(=O)c2ccc(Br)s2)C1` [Compound 153] showed an IC50 at BCAT2 of 500 to 1000 nM. Same read-out and setting: the result for `CNC(=O)c1ccc2c(c1)nc(-c1cc(Cl)ccc1O)n2[C@H]1CCC[C@@H](NC(=O)c2ccc(Cl)s2)C1` [Compound 190] reads 100 to 500 nM. As for `CNC(=O)c1cc2nc(-c3ccccc3)n([C@H]3CCC[C@@H](NC(=O)c4ccc(Br)s4)C3)c2cn1` [Compound 297], the IC50 was below 100 nM against BCAT2 and 0.1 to 0.5 µM in the test on GM00371 cells.

Regarding `CNC(=O)c1ccc2c(c1)nc(-c1ccccc1NC(C)=O)n2[C@H]1CCC[C@@H](NC(=O)c2ccc(C#N)s2)C1` [Compound 130], at BCAT2, the IC50 lay in the range of 500 to 1000 nM. Turning to `O=C(N[C@H]1CCC[C@@H](n2c(-c3ccccn3)nc3cc(CO)ccc32)C1)c1cccs1` [Compound 118], the IC50 against BCAT2 is above 1000 nM; in the test with GM00371 cells it was at least 1 µM.

As for `CNC(=O)c1cc2nc(-c3cccc(F)c3O)n([C@H]3CCC[C@@H](NC(=O)c4ccc(Br)s4)C3)c2cc1F` [Compound 209], the IC50 on BCAT2 was below 100 nM; in the test on GM00371 cells it was 0.1 to 0.5 µM. The corresponding values for `CNC(=O)c1ccc2c(c1)nc(-c1ccccn1)n2[C@H]1CC[C@@H](NC(=O)c2ccc(Br)s2)C1` [Compound 132] are 100 to 500 nM and at least 1 µM.

In the case of `C=CC(=O)N[C@H]1CCC[C@@H](n2c(-c3ccccn3)nc3cc(C(=O)NC)ccc32)C1` [Compound 106], the IC50 against BCAT2 was above 1000 nM; in the test with GM00371 cells it was at least 1 µM.

Take `O=C(N[C@H]1CCC[C@@H](n2c(-c3ccccn3)nc3cc(CO)ccc32)C1)c1ccc(Br)s1` [Compound 119]: the IC50 at BCAT2 fell in the range of 100 to 500 nM. Turning to `CNC(=O)c1ccc2c(c1)nc(-c1ccccc1N1CCOCC1)n2[C@H]1CCC[C@@H](NC(=O)c2ccc(Br)s2)C1` [Compound 159], the IC50 on BCAT2 lay within 100 to 500 nM. Regarding `CNC(=O)c1ccc2c(c1)nc(-c1cccc(F)n1)n2[C@H]1CCC[C@@H](NC(=O)c2ccc(Br)s2)C1` [Compound 216], the IC50 is below 100 nM against BCAT2 and at least 1 µM in the test on GM00371 cells. In the case of `C#Cc1cccc(-c2nc3cc(C(=O)NC)ccc3n2[C@H]2CCC[C@@H](NC(=O)c3ccc(Br)s3)C2)c1` [Compound 167], the IC50 against BCAT2 was above 1000 nM. For the compound `CNC(=O)c1ccc2c(c1)nc(-c1cccc(C#N)c1)n2[C@H]1CCC[C@@H](NC(=O)c2ccc(Br)s2)C1` [Compound 165], the IC50 against BCAT2 was above 1000 nM. As to `CNC(=O)c1ccc2c(c1)nc(-c1ccccn1)n2[C@@H]1CCC[C@H](NC(=O)c2ccccc2)C1` [Compound 115], the IC50 is above 1000 nM on BCAT2 and at least 1 µM in the test with GM00371 cells.

For the compound `CNC(=O)c1ccc2c(c1)nc(-c1ccc(Cl)cc1)n2[C@H]1CCC[C@@H](NC(=O)c2ccc(Br)s2)C1` [Compound 164], the IC50 on BCAT2 lay in the range of 100 to 500 nM. Still for that read-out and setting: the result for `CNC(=O)c1ccc2c(c1)nc(-c1ccc(C#N)c(Cl)n1)n2[C@H]1CCC[C@@H](NC(=O)c2ccc(C#N)s2)C1` [Compound 187] reads above 1000 nM; that for `COC(=O)c1ccc2c(n1)nc(-c1ccccn1)n2[C@H]1CCC[C@@H](NC(=O)c2cccs2)C1` [Compound 300], above 1000 nM.

As to `CNC(=O)c1ccc2c(c1)nc(-c1ccccn1)n2[C@@H]1CCC[C@H](NC(=O)c2ccc(Br)cc2)C1` [Compound 114], the IC50 at BCAT2 lay in the range of 100 to 500 nM.

`COC(=O)c1ccc2c(c1)nc(-c1ccccn1)n2[C@@H]1CCC[C@H](NC(=O)c2cccs2)C1` [Compound 117]: the results for the IC50 at BCAT2 and in the test with GM00371 cells were above 1000 nM and at least 1 µM, respectively.

For the compound `COC(=O)c1ccc2c(n1)nc(-c1ccccn1)n2[C@@H]1CCC[C@H](NC(=O)c2ccc(Br)s2)C1` [Compound 301], the half-maximal inhibitory concentration (IC50) against BCAT2 is 100 to 500 nM.

As to `CNC(=O)c1ccc2c(c1)nc(-c1ccccn1)n2[C@@H]1CCC[C@H](NC(=O)c2ccc(C(=O)OC)s2)C1` [Compound 122], the figures for the IC50 against BCAT2 and in the test on GM00371 cells were above 1000 nM and at least 1 µM, respectively. Take `CNC(=O)c1ccc2c(c1)nc(-c1ccc(C)cc1)n2[C@H]1CCC[C@@H](NC(=O)c2ccc(Br)s2)C1` [Compound 170]: the IC50 against BCAT2 is 500 to 1000 nM. `CNC(=O)c1ccc2c(c1)nc(-c1csc3c1CCCC3)n2[C@H]1CCC[C@@H](NC(=O)c2ccc(Br)s2)C1` [Compound 168]: on BCAT2, the IC50 fell in the range of 500 to 1000 nM. `CNC(=O)c1ccc2c(c1)nc(-c1ccc(OC)c(OC)c1)n2[C@H]1CCC[C@@H](NC(=O)c2ccc(Br)s2)C1` [Compound 158]: on BCAT2, the IC50 is above 1000 nM.

`CNC(=O)c1ccc2c(c1)nc(-c1cccc(C)n1)n2[C@H]1CCC[C@@H](NC(=O)c2ccc(Br)s2)C1` [Compound 148]: the IC50 at BCAT2 was below 100 nM.

With `CNC(=O)c1ccc2c(c1)nc(-c1cc(Cl)cc(C)c1O)n2[C@H]1CCC[C@@H](NC(=O)c2ccc(Br)s2)C1` [Compound 182], on BCAT2, the IC50 is above 1000 nM. For `CNC(=O)c1ccc2c(c1)nc(-c1ccc(C)s1)n2[C@H]1CCC[C@@H](NC(=O)c2ccc(Br)s2)C1` [Compound 171], the IC50 against BCAT2 was in the range of 100 to 500 nM. The same measure, in the same setting: the result for `CNC(=O)c1ccc2c(c1)nc(-c1ccc(C#N)cc1)n2[C@H]1CCC[C@@H](NC(=O)c2ccc(Br)s2)C1` [Compound 162] reads above 1000 nM; that for `CNC(=O)c1ccc2c(c1)nc(-c1ccccn1)n2[C@@H]1CCC[C@H](NC(=O)c2ccc(Br)o2)C1` [Compound 125], above 1000 nM; that for `CNC(=O)c1ccc2c(n1)nc(-c1ccccn1)n2[C@@H]1CCC[C@H](NC(=O)c2ccc(Br)s2)C1` [Compound 305], above 1000 nM. Regarding `CNC(=O)c1ccc2c(c1)nc(-c1ccc(O)cn1)n2[C@H]1CCC[C@@H](NC(=O)c2ccc(Cl)s2)C1` [Compound 191], the half-maximal inhibitory concentration (IC50) at BCAT2 is above 1000 nM. Same read-out and setting: the result for `CNC(=O)c1ccc2c([C@H]3CCC[C@H](NC(=O)c4ccc(-c5ccccc5)s4)C3)c(-c3ccccc3)[nH]c2c1` [Compound 282] reads above 1000 nM; that for `CNC(=O)c1ccc2c(c1)nc(-c1cc(Cl)ccc1O)n2[C@H]1CCC[C@@H](NC(=O)c2ccc(C#N)s2)C1` [Compound 179], 100 to 500 nM. At BCAT2, `CNC(=O)c1ccc2c(c1)nc(-c1ncccc1OC)n2[C@H]1CCC[C@@H](NC(=O)c2ccc(Br)s2)C1` [Compound 150] gave an IC50 above 1000 nM. Compound `CNC(=O)c1ccc2c(c1)nc(-c1ccc(O)cn1)n2[C@H]1CCC[C@@H](NC(=O)c2ccc(Br)s2)C1` [Compound 186] yielded an IC50 on BCAT2 of 100 to 500 nM.
